Results as given in article PMC10683482, “Offsetting Low-Affinity Carbohydrate Binding with Covalency to Engage Sugar-Specific Proteins for Tumor-Immune Proximity Induction” (ACS Central Science, 2023).

What was measured:
anti-23F antibody [1] = experiment: Kinetic SDS-PAGE fluorescence labelling kinetics; type: binding, human; details: rhamnose and antirhamnose antibody; approximated from KI
Method: Figure 2 Capacity of Rha-cARMs to specifically covalently engage monoclonal anti-23F and serum anti-rhamnose. A. Chemical structures of the molecules investigated. B. Assessment of covalent vs noncovalent (cARM/ARM) engagement of human serum antirhamnose antibody via an ELISA assay. Each ARM/cARM (2 μM) was incubated with 2% human serum for 48 h and subsequently incubated directly on a streptavidin ELISA plate. Recruitment was evaluated by the addition of anti-IgG or anti-IgM HRP-conjugated secondary antibody with subsequent chromogenic substrate addition. “Comp” represents the addition of competitor rhamnose (500 mM) during 48 h of incubation. […] D. Kinetic SDS-PAGE fluorescence imaging experiment to determine Rha-AI-cARM/anti-23F antibody labeling kinetics using A647-cARM (8). cARM 8 (2–100 μM) was incubated with anti-23F antibody (2 μM) for up to 4 h. A representative fluorescence gel image is included corresponding to compound 8 (50 μM) incubated with either anti-23F antibody or isotype human IgG. Densitometry analysis with ImageJ was used to quantify relative band intensities. […] The error is calculated by alternative fits of initial rates data (all within the linear labeling range). […]
Figure 4 Selectivity and kinetic analysis of optimized Rha-SO2F-cARMs A. Chemical structures of tool compounds used in this study. […] Kinetic fluorescence SDS-PAGE assay similar to that in Figure 2D. […]

[2] = system: human IgG (polyclonal antirhamnose antibodies); experiment: BLI monitoring of covalent reaction with human IgG (Figure 4B); type: binding; details: 10 μM cARM, 230 μM human IgG, up to 25 h
Text: (§1) The design of rhamnose-SO2F-cARM was again supported by in-silico docking and predicted to preorganize electrophilic SO2F proximal to lysine 104 and serine 53 of the anti-23F heavy chain as well as tyrosine 32 of the light chain (Figure S3). To evaluate the capacity of rhamnose-SO2F-cARMs to specifically label polyclonal antirhamnose antibodies, a tool cARM with a biotin TBD was synthesized (compound 12, Figure 4A, Scheme S5). As an orthogonal kinetics assay to fluorescent gels, tool compound 12 labeling kinetics was first evaluated using an in-house BLI assay and compared to acyl imidazole cARM and ARM analogs. […] Solutions were immediately loaded onto streptavidin probes (Figure 4B, Figure S8). In this assay, rhamnose competition blocks noncovalent antirhamnose recruitment, thus the signal amplitude is directly proportional to the covalently labeled antibody product.
(§2) Figure 4 Selectivity and kinetic analysis of optimized Rha-SO2F-cARMs A. Chemical structures of tool compounds used in this study. B. cARM 12 (10 μM) was incubated with human IgG or BSA (230 μM) then diluted 8× with 100 mM competitor rhamnose spiked kinetics buffer and loaded onto streptavidin probes in BLI. The association plateau was plotted against time to yield the % labeled vs time covalent labeling curve C. Kinetic fluorescence SDS-PAGE assay similar to that in Figure 2D. […]

BSA = molecular target: T1, BSA (Bos taurus, UniProt P02769); experiment: BLI monitoring of covalent reaction, BSA control; type: binding; details: 10 μM cARM, 230 μM BSA in lieu of IgG
T1 construct: purchased Sigma Aldrich A9576-50ML
Text: as §1, §2

anti-23F antibody [3] = experiment: Mass spectrometry study of anti-23F labelling; type: binding, human; details: 10 µM cARM, 2.7 µM anti-23F, 45 hours
Method: To further confirm selectivity, an MS study was conducted to determine the site of labeling (Figures S10 and S11). […] No other labeling site was detected on the light chain; however, the lability of the SO2F-serine/tyrosine linkage to MS sample preparation protocols likely limited complete labeling site coverage. […] Due to the low labeling efficiency of rhamnose-AI-cARM, no labeling site could be identified. […] Determining the selectivity for antirhamnose antibodies in the presence of off-target cell surface proteins will be the focus of future in vivo studies.
Mass Spectrometry Study – Anti-23F Labelling
Anti-23F (2.7 µM) was incubated with 10 µM of Biotin-AI-cAR M 4 or Biotin-SO2F-cAR M 12, or PBS (antibody only) for 45 hours before MS analysis. Analysis was completed by Bioinformatics Solutions
Inc. Briefly, for intact protein analysis each sample was treated with PNGase F to remove glycans followed by LC-MS analysis. To determine site of labelling, each sample was digested with tryspin, chymostrypsin, and pepsin then analyzed by LC-MS/MS on a timsTOF Pro. Peptide spectra were mapped to a known antibody sequence (anti -23F antibody, Creative Biolabs - PABX-173). No labelling was identified with acyl imidazole containing cARM 4. […]
approxima tely 30% labelling post MS protocol (Figure S11)
Figure S10. Sample analysis of peptide mapping of anti-23F heavy chain. Modification with cARM 12 is […]
(1 picture or pasted object on this page, not shown here)

Row | SMILES | Kd (anti-23F antibody [1]) | reaction time to plateau of labeled antibody signal [2] | loading/labeling with BSA (BSA) | site of labelling (LC-MS/MS peptide mapping) (anti-23F antibody [3]) | labelling by intact MS (anti-23F antibody [3]; post MS protocol)
1 | C[C@H](O)[C@H](O)[C@@H](O)[C@@H](O)C=O [rhamnose, L-rhamnose] | ~15 µM |  |  |  | 
2 | C[C@@H]1O[C@@H](OCCNC(=O)C(CCCCNC(=O)OCCOCCOCCOCCOCCOCCOCCOCCNC(=O)CCCC[C@@H]2SC[C@@H]3NC(=O)N[C@@H]32)NC(=O)c2cccc(S(=O)(=O)F)c2)[C@H](O)[C@H](O)[C@H]1O (some centres unmarked) [compound 12] |  | ≤ 10 h | minimal loading/labeling | only lysine 104 of antibody heavy chain | ~30%
